This passage reports EC50 and IC50 results from patent EP4680608B1, “2,6-DIHYDRO-7H-PYRAZOLO[3,4-C]PYRIDIN-7-ONE DERIVATIVES AS ANTI-MALARIAL AGENTS” (MMV Medicines for Malaria Venture, priority 2024, dated 2025).

Structures are written as SMILES.

One assay relates to P. falciparum 3D7. As to the kind of experiment: Asexual blood-stage growth inhibition assay, SYBR green method. As to conditions: ring-stage 3D7 parasites. The format is cell-based. How it is done:
Asexual blood-stage EC50 assays. […] Compound stocks prepared in DMSO were plated using a Tecan D300e automated low volume liquid handler. Ring-stage 3D7 or Dd2 parasites (60 µL cells) (2% hematocrit, 0.5% parasitemia, final DMSO concentration 0.5%) were added to plates, incubated with compounds over a range of concentrations in technical triplicate for 72 h at 37 °C, 5% CO2, and then frozen (-80°C) overnight before analysis. […] Data were analyzed by non-linear regression using GraphPad Prism to determine the EC50 by fitting to the built-in equation (log(inhibitor) vs response-variable slope with four parameters).

In the next assay the target is T1, P. falciparum DHODH (Plasmodium falciparum, UniProt Q08210).
T1 construct: His6 (N); made in house; host or cells: E. coli BL21-DE3 (phage-resistant)
T1 sequence (Q08210 158-569): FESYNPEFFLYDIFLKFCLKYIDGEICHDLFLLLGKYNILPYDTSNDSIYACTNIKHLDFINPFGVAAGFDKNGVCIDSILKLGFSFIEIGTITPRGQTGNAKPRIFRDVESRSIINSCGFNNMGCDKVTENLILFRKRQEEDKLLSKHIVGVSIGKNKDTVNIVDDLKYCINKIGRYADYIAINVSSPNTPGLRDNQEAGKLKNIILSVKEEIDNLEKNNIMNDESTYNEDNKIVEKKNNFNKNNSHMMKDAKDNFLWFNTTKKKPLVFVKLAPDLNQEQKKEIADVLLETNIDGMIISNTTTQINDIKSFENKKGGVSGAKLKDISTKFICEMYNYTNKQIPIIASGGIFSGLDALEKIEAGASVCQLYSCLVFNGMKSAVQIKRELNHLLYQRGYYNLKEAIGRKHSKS
As to the kind of experiment: DHODH inhibition, steady-state DCIP assay (PfDHODH). The format is biochemical. As to conditions: recombinant PfDHODH, DCIP method, 25°C, 5 nM enzyme. The method, then:
(§1) Compound stocks were prepared at 10-100 mM in DMSO, and diluted working stocks in DMSO were generated as appropriate. Compounds were plated from DMSO stocks in 96 well plate format using a Tecan D300e digital dispenser to generate a 3-fold dilution series over a concentration range of 0.0003 -100 µM (or 30 µM), yielding a final DMSO concentration of 1% in the assay. The top concentration used in the dose response was determined by the initial DMSO stock concentrations:100 µM for 100 mM stocks, and 30 µM for 10 mM stocks. Triplicate rate data were collected at each inhibitor concentration. Inhibitory IC50 values were determined by fitting the data to log (inhibitor) vs response equation Y = bottom + (top - bottom)/(1 + 10A ((X - Log IC50))) in GraphPad Prism.

In the next assay the target is P. vivax DHODH (Plasmodium vivax, UniProt A5K1N1). The assay is described as follows: DHODH inhibition, steady-state DCIP assay (PvDHODH). The format is biochemical. As to conditions: recombinant PvDHODH, DCIP method, 25°C, 5 nM enzyme; read-out: P. vivax DHODH (IC50).
P. vivax DHODH, sequence (A5K1N1 entry or part of it): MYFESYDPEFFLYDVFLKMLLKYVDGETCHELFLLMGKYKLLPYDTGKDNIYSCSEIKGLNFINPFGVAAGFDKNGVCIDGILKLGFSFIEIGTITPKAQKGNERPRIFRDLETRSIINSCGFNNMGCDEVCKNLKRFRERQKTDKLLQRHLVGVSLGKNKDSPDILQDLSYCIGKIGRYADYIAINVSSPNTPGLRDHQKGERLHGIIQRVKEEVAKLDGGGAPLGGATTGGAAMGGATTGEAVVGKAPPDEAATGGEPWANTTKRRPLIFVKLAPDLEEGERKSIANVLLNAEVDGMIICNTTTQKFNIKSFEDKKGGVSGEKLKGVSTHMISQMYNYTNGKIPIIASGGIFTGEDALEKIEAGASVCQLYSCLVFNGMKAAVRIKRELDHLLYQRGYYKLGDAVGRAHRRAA
Source text: (§2) DOI: 10.1074/jbc.M206854200).
(§3) Proteins were expressed and purified on a Pharmacia FPLC using HisTrap HP column chromatography followed by gel filtration chromatography on a Pharmacia HiLoad 16/600 Superdex 200 column, and protein concentration determined based on OD280 using the previously described extinction coefficients (Kokkonda et al., 2020, J Med Chem, 63 (9), 4929-4956. DOI: 10.1021/acs.jmedchem.0c00311). Purified proteins were >95% pure based on SDS-PAGE analysis.
(§4) DHODH activity was monitored in a steady-state assay using the 2,6-dichloroindophenol (DCIP) method at 25°C in assay buffer (100 mM HEPES, pH 8.0, 150 mM NaCl, 1% glycerol, 0.1% Triton X-100 reduced) plus substrates 20 µM CoQD, 200 µM DHO, 120 µM DCIP, and 5 nM enzyme as previously described (Malmquist et al, 2008, Biochemistry, 47 (8), 2466-2475. DOI: 10.1021/bi702218c).
as §1, with “Prism. DSM265 ^2 was plated as an assay control in all studies.” for “Prism.”

The next assay deals with T2, Human DHODH (Homo sapiens, UniProt Q02127).
T2 construct: C-terminal His6-tagged HsDHODH residues 29-395 in pET-22b (start ^29MATGDE); His6 (C); made in house; host or cells: E. coli BL21-DE3 (phage-resistant)
T2 sequence (Q02127 29-395): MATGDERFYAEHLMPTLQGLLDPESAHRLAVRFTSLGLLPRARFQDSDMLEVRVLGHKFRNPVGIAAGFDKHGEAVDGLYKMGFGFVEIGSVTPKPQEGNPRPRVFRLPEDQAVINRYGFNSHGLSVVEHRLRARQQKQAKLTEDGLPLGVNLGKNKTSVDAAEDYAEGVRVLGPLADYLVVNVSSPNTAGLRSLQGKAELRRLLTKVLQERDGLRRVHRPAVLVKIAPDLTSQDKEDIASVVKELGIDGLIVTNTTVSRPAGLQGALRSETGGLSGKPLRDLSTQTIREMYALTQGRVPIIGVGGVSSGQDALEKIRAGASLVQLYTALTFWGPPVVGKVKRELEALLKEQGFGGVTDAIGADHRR
The assay is described as follows: DHODH inhibition, steady-state DCIP assay (human DHODH). The format is biochemical. As to conditions: recombinant HsDHODH, DCIP method, 25°C, 5 nM enzyme; top concentration 100 µM or 30 µM.
Source text: as §2, §3, §4
as §1, with “Prism. DSM265 ^2 was plated as an assay control in all studies.” for “Prism.”

Setting [1] is: Plasmodium falciparum, 3D7, 72 h.

As to `CC[C@@](N)(c1cnc(C(F)(F)F)c(Cl)c1)c1c2ccn(C3CC3)c(=O)c2nn1C` (single isomer, unassigned) [4-11], the EC50 in the assay with P. falciparum 3D7 (setting [1]) worked out at 2.6 nM. Besides, the 50% inhibitory concentration (IC50) on P. falciparum DHODH worked out at 42 nM; at P. vivax DHODH, 41 nM; on Human DHODH, 13000 nM.
In the case of `CCn1cc(C)c2c([C@H](N)c3ccc(C(F)(F)F)c(C#N)c3)n(C)nc2c1=O` (single isomer, unassigned) [4-14], the EC50 in the assay with P. falciparum 3D7 (setting [1]) was 16 nM. Besides, the figures for the IC50 on P. falciparum DHODH, at P. vivax DHODH and on Human DHODH were 83 nM, 39 nM and above 100000 nM, respectively.
As for `Cn1nc2c(=O)n(C3CC3)ncc2c1[C@](N)(c1ccc(C(F)(F)F)c(Cl)c1)C1CC1` (single isomer, unassigned) [4-16], the EC50 in the assay on P. falciparum 3D7 (setting [1]) amounted to 7.4 nM. The results for the concentration for half-maximal inhibition (IC50) at P. falciparum DHODH, on P. vivax DHODH and at Human DHODH were 17 nM, 7.8 nM and 16000 nM, respectively.
The like results for `Cn1nc2c(=O)n(C3CC3)cnc2c1[C@](C)(N)c1ccc(C(F)(F)F)c(Cl)c1` (single isomer, unassigned) [4-20] were, in that order, 0.44 nM, 8.2 nM, 8.3 nM and 20000 nM.
The compound `CC[C@@](N)(c1ccc(F)c(Cl)c1)c1c2ncn(C3CC3)c(=O)c2nn1C` (single isomer, unassigned) [4-22] displayed a 50% effective concentration (EC50) in the assay with P. falciparum 3D7 (setting [1]) of 4.1 nM. Besides, the IC50 on P. falciparum DHODH is 23 nM; at P. vivax DHODH, 20 nM; at Human DHODH, 4600 nM.
For `Cn1nc2c(=O)n(C3CC3)cnc2c1[C@](N)(c1ccc(C(F)(F)F)c(Cl)c1)C1CC1` (single isomer, unassigned) [4-24], in that order: 2.1 nM, 11 nM, 8.7 nM and 3200 nM.
The like results for `CC[C@@](N)(c1ccc(C(F)(F)F)c(Cl)c1)c1c2ncn(C3CC3)c(=O)c2nn1C` (single isomer, unassigned) [4-26] were, in that order, 0.91 nM, 9.5 nM, 5.2 nM and 1400 nM.
The like results for `CC[C@@](N)(c1cnc(C(F)(F)F)c(Cl)c1)c1c2ncn(C3CC3)c(=O)c2nn1C` (single isomer, unassigned) [4-27] were, in that order, 6.5 nM, 47 nM, 40 nM and above 30000 nM.
The compound `Cn1nc2c(=O)n(C3CC3)cnc2c1[C@](O)(c1cnc(C(F)(F)F)c(Cl)c1)C(F)(F)F` (single isomer, unassigned) [5-3] registered an EC50 with P. falciparum 3D7 (setting [1]) of 1.7 nM. For the same compound, the half-maximal inhibitory concentration (IC50) is 18 nM at P. falciparum DHODH, 28 nM at P. vivax DHODH and above 30000 nM on Human DHODH.
The like results for `Cn1nc2c(=O)n(C3CC3)ccc2c1[C@](O)(c1ccc(F)c(Cl)c1)C(F)(F)F` (single isomer, unassigned) [5-9] were, in that order, 0.52 nM, 14 nM, 9.8 nM and 9200 nM.
For `Cn1nc2c(=O)n(C3CC3)ncc2c1[C@](O)(c1ccc(C(F)(F)F)c(Cl)c1)C(F)(F)F` (single isomer, unassigned) [5-15], in that order: 0.29 nM, 8.6 nM, 9.3 nM and 24000 nM.
For `Cn1nc2c(=O)n(C3CC3)cnc2c1[C@](O)(c1ccc(C(F)(F)F)c(Cl)c1)C(F)(F)F` (single isomer, unassigned) [5-17], in that order: 0.046 nM, 4.6 nM, 6.1 nM and 5600 nM.
For the compound `Cn1nc2c(=O)n(C3CC3)cnc2c1[C@](O)(c1ccc(C(F)(F)F)c(C#N)c1)C(F)(F)F` (single isomer, unassigned) [5-19], in the assay with P. falciparum 3D7 (72 h), the half-maximal effective concentration (EC50) is 0.35 nM. For the same compound, the results for the IC50 on P. falciparum DHODH, on P. vivax DHODH and at Human DHODH were 12 nM, 20 nM and 17000 nM, respectively.
With `Cn1nc2c(=O)n(C3CC3)cnc2c1[C@](O)(c1ccc(C(F)(F)F)nc1)C(F)(F)F` (single isomer, unassigned) [5-21], a half-maximal response with P. falciparum 3D7 (setting [1]) (EC50) required 2.1 nM. Moreover, the IC50 at P. falciparum DHODH was 31 nM; at P. vivax DHODH, 29 nM; on Human DHODH, above 30000 nM.
The like results for `Cn1nc2c(=O)n(C3CC3)cnc2c1[C@](O)(c1cnc(C(F)(F)F)c(Cl)c1)C(F)F` (single isomer, unassigned) [5-22] were, in that order, 6.1 nM, 11 nM, 7.7 nM and 22000 nM.
The like results for `CC(C)n1cnc2c([C@](O)(c3ccc(C(F)(F)F)c(Cl)c3)C(F)(F)F)n(C)nc2c1=O` (single isomer, unassigned) [5-32] were, in that order, 0.25 nM, 5 nM, 8.5 nM and 14000 nM.
For `Cn1nc2c(=O)n(C3CC3)cnc2c1[C@](N)(c1ccc(C(F)(F)F)c(C#N)c1)C(F)(F)F` (single isomer, unassigned) [5-40], in that order: 3.1 nM, 18 nM, 22 nM and above 30000 nM.
For `Cn1nc2c(=O)n(C3CC3)ccc2c1[C@](N)(c1ccc(C(F)(F)F)c(C#N)c1)C(F)(F)F` (single isomer, unassigned) [5-45], the concentration giving a half-maximal response (EC50) with P. falciparum 3D7 (setting [1]) is 0.85 nM. Further, the results for the half-inhibitory concentration (IC50) on P. falciparum DHODH, at P. vivax DHODH and at Human DHODH were 8.2 nM, 8.5 nM and 30000 nM, respectively.
In the assay with P. falciparum 3D7 (setting [1]), `Cn1nc2c(=O)n(C3CC3)ccc2c1[C@](N)(c1ccc(C(F)(F)F)c(Cl)c1)C(F)(F)F` (single isomer, unassigned) [5-49] came in with an EC50 of 0.64 nM. Also, the results for the half-inhibitory concentration (IC50) at P. falciparum DHODH, at P. vivax DHODH and at Human DHODH were 3.9 nM, 4.2 nM and 9000 nM, respectively.
In the assay with P. falciparum 3D7 (setting [1]), `Cn1nc2c(=O)n(C3CC3)cnc2c1[C@](N)(c1ccc(C(F)(F)F)c(Cl)c1)C(F)(F)F` (single isomer, unassigned) [5-51] yielded an EC50 of 0.71 nM. Besides, the IC50 stood at 4.3 nM on P. falciparum DHODH, 4 nM at P. vivax DHODH and 30000 nM on Human DHODH.
The like results for `Cn1nc2c(=O)n(C3CC3)cnc2c1[C@](O)(c1cnc(C(F)(F)F)c(C#N)c1)C(F)(F)F` (single isomer, unassigned) [5-52] were, in that order, 11 nM, 62 nM, 46 nM and above 30000 nM.
The like results for `Cn1nc2c(=O)n(C3CC3)cnc2c1[C@](O)(c1ccc(C(F)F)c(C#N)c1)C(F)(F)F` (single isomer, unassigned) [5-54] were, in that order, 3 nM, 44 nM, 3.5 nM and above 30000 nM.
In the assay on P. falciparum 3D7 (setting [1]), `CCC(O)(c1cnc(C(F)(F)F)c(Cl)c1)c1c2cc(C)n(C3CC3)c(=O)c2nn1C` (centres unmarked) [1-7, 3-(1-(5-chloro-6-(trifluoromethyl)pyridin-3-yl)-1-hydroxypropyl)-6-cyclopropyl-2,5-dimethyl-2,6-dihydro-7H-pyrazolo[3,4-c]pyridin-7-one] registered a half-maximal effective concentration (EC50) of 6.5 nM. Further, the IC50 is 60 nM at P. falciparum DHODH, 26 nM on P. vivax DHODH and 14000 nM on Human DHODH.

Broadly, the EC50 is the midpoint of the concentration-response curve. The IC50 is the concentration at which inhibition is half-maximal.
